Measurements reported in publication PMC2949447 (The Journal of steroid biochemistry and molecular biology, 2010).

Columns and labels:
[1] = Serum androgen levels by RIA in androgen ± dutasteride treated rats; details: for effect of concurrent DUT on serum level of the administered androgen: androgen sc ± DUT 1.0 mg/day orally, blood 2 h after final dose; for serum DHT levels: n=10
[2] = system: castrate immature male Sprague-Dawley rats; experiment: Effect of dutasteride in the sc androgenic assay; assay type: in vivo, rat; details: 8 days; for effect of concurrent DUT on androgen-stimulated VP and SV weights: maximal stimulatory sc dose of androgen ± DUT 1.0 mg/day orally
[3] = system: castrate immature male Sprague-Dawley rats; experiment: sc androgenic assay in castrate immature rats; assay type: in vivo, rat
[4] = system: recombinant human aromatase; details: conditions allowing complete conversion of T to estradiol; ref [13]; cited from earlier work
castrate rats = details: single sc injection 1.2 mg/rat, castrate 22 day-old rats; ref [5] and unpublished observations; cited from earlier work
[5] = molecular target: T1, rat AR ligand binding domain (ARLBD) (Rattus norvegicus, UniProt P15207); experiment: Competitive binding to purified rat AR ligand binding domain; details: RBA = IC50 R1881/IC50 test compound X 100; R1881 defined as 100%
T1 sequence (P15207 651-882 limits assumed): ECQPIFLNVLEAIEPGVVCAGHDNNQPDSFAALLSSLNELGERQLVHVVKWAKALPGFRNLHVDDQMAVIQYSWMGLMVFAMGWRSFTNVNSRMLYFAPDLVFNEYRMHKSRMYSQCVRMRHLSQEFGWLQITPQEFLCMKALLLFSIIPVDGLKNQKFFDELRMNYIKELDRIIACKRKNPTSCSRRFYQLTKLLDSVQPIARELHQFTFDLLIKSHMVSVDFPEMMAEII

[6] = system: rat liver or prostate homogenates; details: ref Sundaram et al. [1]; cited from earlier work

C[C@]12CCC(=O)C[C@@H]1CC[C@@H]1[C@@H]2CC[C@]2(C)[C@@H](O)CC[C@@H]12 [DHT, 5α-dihydrotestosterone]
effect of concurrent DUT on serum level of the administered androgen ([1]; 8 days): not significantly different
effect of concurrent DUT on androgen-stimulated VP and SV weights [2]: comparable

C[C@@H]1C[C@H]2CC(=O)CC[C@@H]2[C@@H]2[C@@H]1[C@@H]1CC[C@H](O)[C@@]1(C)C[C@@H]2C [5α-DHDMA, 5α-dihydroDMA]
androgenic potency as percent of DMA (ventral prostate growth) ([3]; sc 7 days): 30-40%

C[C@]12C=CC(=O)N[C@@H]1CC[C@@H]1[C@@H]2CC[C@]2(C)[C@@H](C(=O)Nc3cc(C(F)(F)F)ccc3C(F)(F)F)CC[C@@H]12 [DUT, 17β-N-2,5-bis-[trifluoromethyl]-phenylcarbamoyl-4-aza-5a-androstan-1-en-3-one]
serum DHT levels ([1]; T 0.23 mg sc + DUT 0.1 mg/rat orally, 8 days): 606 ± 111 pg/mL
serum DHT levels ([1]; T 0.23 mg sc + DUT 1.0 mg/rat orally, 8 days): 235 ± 36 pg/mL
serum DHT levels ([1]; T 0.23 mg sc + DUT 10 mg/rat orally, 8 days): 56 ± 4 pg/mL
toxicity judged by suppression of body weights ([2]; DUT 10 mg/day orally): showed evidence of toxicity
effect on VP and SV weights in T-treated rats ([2]; DUT 0.1, 1.0 or 10.0 mg/day orally with T 0.23 mg/day sc): significantly decreased

C[C@H]1C[C@]2(C)[C@@H](O)CC[C@H]2[C@@H]2CCC3=CC(=O)CC[C@@H]3[C@H]21 [MNT, 11β-methyl-19-nortestosterone]
effect of concurrent DUT on serum level of the administered androgen ([1]; 8 days): higher
aromatization to aromatic A-ring estrogen [4]: not aromatized
effect of concurrent DUT on androgen-stimulated VP and SV weights [2]: did not affect VP or SV weights

CCCCCCCCCCC(=O)O[C@H]1CC[C@H]2[C@H]3[C@H]([C@@H](C)C[C@]12C)[C@H]1CCC(=O)C=C1C[C@H]3C [DMAU, dimethandrolone 17β-undecanoate]
duration VP and SV growth maintained above castrate levels (castrate rats): about 21 weeks

C[C@@H]1C[C@H]2CC(=O)CC[C@@H]2[C@H]2CC[C@]3(C)[C@@H](O)CC[C@H]3[C@@H]21 [5α-DHMENT, 5α-dihydroMENT]
Binding to ARLBD RBA [5]: 26%

C[C@@H]1CC2=CC(=O)CC[C@@H]2[C@H]2CC[C@]3(C)[C@@H](O)CC[C@H]3[C@@H]21 [MENT, 7α-methyl-19-nortestosterone]
5α-reduction [6]: not 5α-reduced
effect of concurrent DUT on serum level of the administered androgen ([1]; 8 days): significantly decreased
effect of concurrent DUT on androgen-stimulated VP and SV weights [2]: comparable

C[C@@H]1CC2=CC(=O)CC[C@@H]2[C@@H]2[C@@H]1[C@@H]1CC[C@H](O)[C@@]1(C)C[C@@H]2C [DMA, 7α,11β-dimethyl-19-nortestosterone]
effect of concurrent DUT on serum level of the administered androgen ([1]; 8 days): not significantly different
anabolic activity (stimulation of LA muscle weight), comparison ([3]; sc, Fig. 1b): greater than that of 5α-DHDMA or T
aromatization to aromatic A-ring estrogen [4]: not aromatized
effect of concurrent DUT on androgen-stimulated VP and SV weights [2]: did not affect VP or SV weights

C[C@]12CC[C@H]3[C@@H](CCC4=CC(=O)CC[C@@]43C)[C@@H]1CC[C@@H]2O [T, Testosterone]
effect of concurrent DUT on serum DHT in T-treated rats ([1]; T sc + DUT 1.0 mg/day orally, 8 days): suppressed to levels observed in castrate vehicle-treated rats
effect of concurrent DUT on serum level of the administered androgen ([1]; 8 days): significantly elevated
serum DHT levels ([1]; rats treated sc with 0.23 mg T alone for 8 days, 2 h after final dose): 1,247 ± 106 pg/ml
effect of concurrent DUT on androgen-stimulated VP and SV weights [2]: significantly blunted

CCCCCCCCCCCCOC(=O)O[C@H]1CC[C@H]2[C@@H]3CCC4=CC(=O)CC[C@@H]4[C@H]3[C@@H](C)C[C@]12C [MNTDC, 11β-methyl-19-nortestosterone 17β-dodecylcarbonate]
duration VP and SV growth maintained above castrate levels (castrate rats): ~14 weeks
